Reference: publication PMC8325676, “The tea plant CsLHT1 and CsLHT6 transporters take up amino acids, as a nitrogen source, from the soil of organic tea plantations” (Horticulture Research, 2021)
Blank lines part the entries; values can stand above or below the molecule they belong to.

Assays:
[1] = test system: CsLHT1; settings: 10-500 µM 15N-Glu, 10 min, 30°C; labelled compound
[2] = substrate: N[C@@H](CCC(=O)O)C(=O)O; experiment: cells, lysate or membranes; format: cell-based, Camellia sinensis; settings: 0.5-20 mM 15N-Glu, 10 min, 30°C, labelled compound

Km [1]: 39.9 µM
Molecule: N[C@@H](CCC(=O)O)C(=O)O [15N-Glu]

B1: CsLHT6 (Camellia sinensis) (protein)
chain: MVSNSPPAPKEVPTEEDQWTEKGPPREAKWWYSTFHTVTAMVGAGVLSLPYAMAYLGWGPGTMLLVFSWCITLNTMWQMIQLHECVPGVRFDHYYDLGRHAFGPKLGPWIVLPQQLIVQVGCDIVYMVTGGKCLKKFMEIVCTNCTRIKQSYWICIFGSTHFFLSQLPNFNSVSGVSLAAAIMSLSYSTIAWVGCLSKGRVENVSYAYKKTSGADSMFRVFNALGEITFAYAGHAVVLEIQATVPSTPEMPSKVPMWKGAVWAYFINAICYFPVALIGYWAFGQDVADNVLVALERPSWLIAAANLMVVIHVIGSYQVYAMPVFDLLEKAMVKRLSFPPGIGLRIIVRSAYVAFTLFVGVTFPFFGDLLGFFGGFGFAPTSYFLPSIIWLIIKKPKRFSISWFINWACIYIGVFVMLASTIGGLRNIVIDSSTYEFYS
notes: cloned from root cDNA
Km [2]: 2500 µM
